Laboratory results published in patent US20100209931A1, “Compositions for Identifying Novel Compositions for the Treatment of Disease and Methods of Using Same” (priority 2009, published 2010).
Entries after “also recorded” stand apart in the source; their conditions may differ.

Legend:
[1] = test system: erg6Δ ira2Δ cells; test: growth on solid agar media, serial dilutions spotted; details: SC plates with compound, three days at 30° C.
[2] = test system: erg6Δ ira2Δ cells; test: 96-well plate growth assay, erg6Δ ira2Δ strain; type: cell-based, Saccharomyces cerevisiae; details: for sensitivity of growth to compound: erg6Δ ira2Δ, 96-well plate growth assay, optical density, 30° C.
[3] = test system: erg6Δ cells; test: 96-well plate growth assay, erg6Δ strain; type: cell-based, Saccharomyces cerevisiae
[4] = test system: MPNST cell lines; test: growth of MPNST cell lines; type: cell-based, human
[5] = test system: cells lacking IRA2; test: growth of cells lacking IRA2, 96-well plates; type: cell-based, Saccharomyces cerevisiae
[6] = test system: erg6Δ iralΔ ira2Δ; test: 96-well plate growth assay, erg6Δ ira1Δ ira2Δ strain; details: genotype erg6Δ iralΔ ira2Δ; OD 595 nm after 24 hours
Protocol: Wild type yeast cells (MLY41 a strain derived from the Σ11278b background) and cells having the genotypes shown in Table 2 are grown overnight in SC media, 75 μL of culture at a starting optical density of 0.1 are added to a 96 well plate containing 75 μL of SC media with twice the desired final concentration of the compound of Formula I in 1% DMSO. Plates are incubated in a humidified 30° C. chamber and scanned on an optical density plate reader at 595 nm after 24 hours. […] Strains are treated as described above, and the growth of the culture is monitored for 24 hours at the indicated intervals. The points represent the mean of three wells per condition.

Question: CC[C@@]1(O)C(=O)OCc2c1cc1n(c2=O)Cc2cc3ccccc3nc2-1 [camptothecin] was tested. Which “sensitivity of growth on agar media” value [1] did it give?
Answer: Its value is “differential sensitivity; also recorded: sensitizes”.

Question: Which results are given for COc1cccc(-c2cc(=O)c3ccccc3o2)c1N [PD98059]?
Answer: sensitivity of cells lacking ERG6 and IRA2 ([2]; 50 μM PD98059): sensitive; sensitivity of cells lacking ERG6 and IRA2 ([2]; 25 μL (so in the source) PD98059, 24 hours): less sensitive; sensitivity of growth to compound [2]: sensitized; also recorded: increased sensitivity; sensitivity of growth to compound ([3]; erg6Δ alone, 96-well plate growth assay): not sensitive; sensitivity of growth on agar media [1]: increased sensitivity; growth in MPNST lines [4]: inhibiting growth; selective suppression of growth of NF1-/- MPNST cell line relative to NF1+/+ MPNST line ([4]; NF1−1− MPNST cell line relative to NF1+/+ MPNST line): selectively suppress growth

Question: How did the “growth inhibition of cells lacking IRA2 by rapamycin alone” value ([5]; rapamycin dose used in combination, 24 hours) turn out when CO[C@H]1C[C@@H]2CC[C@@H](C)[C@@](O)(O2)C(=O)C(=O)N2CCCC[C@H]2C(=O)O[C@H]([C@H](C)C[C@@H]2CC[C@@H](O)[C@H](OC)C2)CC(=O)[C@H](C)/C=C(\C)[C@@H](O)[C@@H](OC)C(=O)[C@H](C)C[C@H](C)/C=C/C=C/C=C/1C [rapamycin] was run?
Answer: The value was “does not inhibit”.

Question: With N=C(N)SCc1cn(-c2ccccc2)nc1-c1cccc(Br)c1 [Formula II] as the molecule, how does the “sensitivity of growth to compound” value [2] read?
Answer: Its value is “differential sensitivity”.

Question: What about the “Effect of Compound of Formula II” value ([2]; genotype ira2Δ, erg6Δ, OD 595 nm after 24 hours) of the same molecule?
Answer: The value was “Inhibition at 10 uM and 50 uM”.

Question: What about the “Effect of Compound of Formula II” value ([3]; genotype erg6Δ, OD 595 nm after 24 hours) of the same molecule?
Answer: The value was “Inhibition at 50 uM”.

Question: What about the “Effect of Compound of Formula II (inhibition at concentration)” value [6] of the same molecule?
Answer: Its value is “Inhibition at less than 10 uM”.

Question: What about the “growth of cells lacking IRA2” value ([5]; FIG. 7) of the same molecule?
Answer: Its value is “Growth inhibition”.
